Legend:
[1] = test system: SKBR3 (PI3Kα-Wild Type) cell line; assay: HTRF phospho-AKT(S473) cell assay in SKBR3 cells; type: cell-based, human
In short: (§1)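 T47D (PI3Kα-H1047R; RPMI, 10% FBS, insulin) and SKBR3 (wild-type PI3Kα; McCoy's 5A, 10% FBS) cells treated 2 h at 37 °C with 12-point 1:3 dilutions, top 5 μM and 10 μM respectively, ≤0.5% DMSO. SKBR3 stimulated with 70 ng/ml PDGF-BB for the last 15 min; lysate pAKT(S473) by HTRF, IC50 from curves.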

[2] = test system: T47D (PI3Kα-H1047R) cell line; assay: HTRF phospho-AKT(S473) cell assay in T47D cells; type: cell-based, human
In short: as §1

[3] = Homo sapiens, SK-BR-3; SKBR3 (PI3Kα-Wild Type) cells, HTRF phospho-AKT(S473), 2 hours compound incubation, PDGF-BB stimulated
[4] = Homo sapiens; T47D (PI3Kα-H1047R) cells, HTRF phospho-AKT(S473), 2 hours compound incubation
[5] = Homo sapiens, SK-BR-3; HTRF phospho-AKT(S473), SKBR3 (PI3Kα-Wild Type) cells, 2 hours compound incubation, PDGF-BB stimulated
[6] = Homo sapiens; HTRF phospho-AKT(S473), T47D (PI3Kα-H1047R) cells, 2 hours compound incubation

Structure (SMILES)	IC50 [1, 3]	IC50 [2, 4]	IC50 [1, 5]	IC50 [2, 6]
Cc1cc([C@@H](C)Nc2ccc(Cl)nc2C(=O)NS(C)(=O)=O)c2nc(N3CCC[C@@H](Oc4cccnc4)C3)n(C)c(=O)c2c1 [Compound 343, 6-chloro-3-(((R)-1-(3,6-dimethyl-4-oxo-2-((R)-3-(pyridin-3-yloxy)piperidin-1-yl)-3,4-dihydroquinazolin-8-yl)ethyl)amino)-N-(methylsulfonyl) picolinamide]	≥ 5000 nM	250 to 500 nM	–	–
Cc1cc([C@@H](C)Nc2ccc(Cl)nc2C(=O)NS(C)(=O)=O)c2nc(N3C[C@@H]4C[C@H](c5cc[nH]n5)[C@H]3C4)n(C)c(=O)c2c1 (relative stereo) [Compound 347, 3-(((R)-1-(2-((1R,4R,6R*)-6-(1H-pyrazol-3-yl)-2-azabicyclo[2.2.1]heptan-2-yl)-3,6-dimethyl-4-oxo-3,4-dihydroquinazolin-8-yl)ethyl)amino)-6-chloro-N-(methylsulfonyl) picolinamide]	≥ 5000 nM	250 to 500 nM	–	–
Cc1cc([C@@H](C)Nc2ccc(Cl)nc2C(=O)NS(C)(=O)=O)c2nc(N3C[C@H]4C[C@@H]3C[C@@H]4c3nn(C)cc3F)n(C)c(=O)c2c1 (relative stereo) [Compound 443, 6-chloro-3-(((R)-1-(2-((1R*,4S*,5S*)-5-(4-fluoro-1-methyl-1H-pyrazol-3-yl)-2-azabicyclo[2.2.1]heptan-2-yl)-3,6-dimethyl-4-oxo-3,4-dihydroquinazolin-8-yl)ethyl)amino)-N-(methylsulfonyl) picolinamide]	–	–	1000 to 5000 nM	250 to 500 nM
Cc1cc([C@@H](C)Nc2ccc(Cl)nc2C(=O)NS(C)(=O)=O)c2nc(N3CC[C@@H](Oc4cnn(C)c4)C3)n(C)c(=O)c2c1 [Compound 320, 6-chloro-3-(((R)-1-(3,6-dimethyl-2-((R)-3-((1-methyl-1H-pyrazol-4-yl)oxy)pyrrolidin-1-yl)-4-oxo-3,4-dihydroquinazolin-8-yl)ethyl)amino)-N-(methylsulfonyl) picolinamide]	1000 to 5000 nM	< 250 nM	–	–
Cc1cc([C@@H](C)Nc2ccc(Cl)nc2C(=O)NS(C)(=O)=O)c2nc(N3CCC(n4ccc(N(C)C)n4)CC3)n(C)c(=O)c2c1 [Compound 310, (R)-6-chloro-3-((1-(2-(4-(3-(dimethylamino)-1H-pyrazol-1-yl)piperidin-1-yl)-3,6-dimethyl-4-oxo-3,4-dihydroquinazolin-8-yl)ethyl)amino)-N-(methylsulfonyl) picolinamide]	1000 to 5000 nM	< 250 nM	–	–
Cc1cc([C@@H](C)Nc2ccc(Cl)nc2C(=O)NS(C)(=O)=O)c2nc(N3Cc4cnn(CC(F)(F)F)c4C3)n(C3CC3)c(=O)c2c1 [Compound 736, (R)-6-chloro-3-((1-(3-cyclopropyl-6-methyl-4-oxo-2-(1-(2,2,2-trifluoroethyl)-4,6-dihydropyrrolo[3,4-c]pyrazol-5(1H)-yl)-3,4-dihydroquinazolin-8-yl)ethyl)amino)-N-(methylsulfonyl) picolinamide]	–	–	≥ 5000 nM	500 to 1000 nM
Cc1cc([C@@H](C)Nc2ccc(Cl)nc2C(=O)NS(C)(=O)=O)c2nc(N3CCC(c4cc5n(n4)CCO5)CC3)n(C)c(=O)c2c1 [Compound 556, (R)-6-chloro-3-((1-(2-(4-(2,3-dihydropyrazolo[5,1-b]oxazol-6-yl)piperidin-1-yl)-3,6-dimethyl-4-oxo-3,4-dihydroquinazolin-8-yl)ethyl)amino)-N-(methylsulfonyl) picolinamide]	–	–	1000 to 5000 nM	< 250 nM
Cc1cc([C@@H](C)Nc2ccc(Cl)nc2C(=O)NS(C)(=O)=O)c2nc(N3C[C@@H]4C[C@]4(c4cnc(C)cn4)C3)n(C)c(=O)c2c1 (relative stereo) [Compound 750, 6-chloro-3-(((R)-1-(3,6-dimethyl-2-((1R*,5R*)-1-(5-methylpyrazin-2-yl)-3-azabicyclo[3.1.0]hexan-3-yl)-4-oxo-3,4-dihydroquinazolin-8-yl)ethyl)amino)-N-(methylsulfonyl) picolinamide]	–	–	≥ 5000 nM	250 to 500 nM
Cc1cc([C@@H](C)Nc2ccc(Cl)nc2C(=O)NS(C)(=O)=O)c2nc(-c3cc4cn(C)nc4cn3)n(C)c(=O)c2c1 [Compound 839, (R)-6-chloro-3-((1-(3,6-dimethyl-2-(2-methyl-2H-pyrazolo[3,4-c]pyridin-5-yl)-4-oxo-3,4-dihydroquinazolin-8-yl)ethyl)amino)-N-(methylsulfonyl) picolinamide]	–	–	1000 to 5000 nM	250 to 500 nM
CC(=O)N1CCN(c2cc(F)c(-c3nc4c([C@@H](C)Nc5ccc(Cl)nc5C(=O)NS(C)(=O)=O)cc(C)cc4c(=O)n3C)cc2F)CC1 [Compound 800, (R)-3-((1-(2-(4-(4-acetylpiperazin-1-yl)-2,5-difluorophenyl)-3,6-dimethyl-4-oxo-3,4-dihydroquinazolin-8-yl)ethyl)amino)-6-chloro-N-(methylsulfonyl) picolinamide]	–	–	1000 to 5000 nM	< 250 nM
Cc1cc([C@@H](C)Nc2ccc(Cl)nc2C(=O)NS(C)(=O)=O)c2nc(N3CCC(c4cc(C5CC5)[nH]n4)CC3)n(C)c(=O)c2c1 [Compound 511, (R)-6-chloro-3-((1-(2-(4-(5-cyclopropyl-1H-pyrazol-3-yl)piperidin-1-yl)-3,6-dimethyl-4-oxo-3,4-dihydroquinazolin-8-yl)ethyl)amino)-N-(methylsulfonyl) picolinamide]	–	–	≥ 5000 nM	500 to 1000 nM
Cc1cc([C@@H](C)Nc2ccc(Cl)nc2C(=O)NS(C)(=O)=O)c2nc(N3CCC(c4cn[nH]c4)CC3)n(C)c(=O)c2c1 [Compound 167, (R)-3-((1-(2-(4-(1H-pyrazol-4-yl)piperidin-1-yl)-3,6-dimethyl-4-oxo-3,4-dihydroquinazolin-8-yl)ethyl)amino)-6-chloro-N-(methylsulfonyl) picolinamide]	1000 to 5000 nM	< 250 nM	–	–
Cc1cc([C@@H](C)Nc2ccc(Cl)nc2C(=O)NS(C)(=O)=O)c2nc(N3CCC(c4cncc(C)n4)CC3)n(C)c(=O)c2c1 [Compound 399, (R)-6-chloro-3-((1-(3,6-dimethyl-2-(4-(6-methylpyrazin-2-yl)piperidin-1-yl)-4-oxo-3,4-dihydroquinazolin-8-yl)ethyl)amino)-N-(methylsulfonyl) picolinamide]	≥ 5000 nM	< 250 nM	–	–
Cc1cc([C@@H](C)Nc2ccc(Cl)nc2C(=O)NS(C)(=O)=O)c2nc(N3CCN(c4ccn(C)n4)[C@H](C)C3)n(C)c(=O)c2c1 [Compound 256, 6-chloro-3-(((R)-1-(3,6-dimethyl-2-((R)-3-methyl-4-(1-methyl-1H-pyrazol-3-yl)piperazin-1-yl)-4-oxo-3,4-dihydroquinazolin-8-yl)ethyl)amino)-N-(methylsulfonyl) picolinamide]	1000 to 5000 nM	< 250 nM	–	–

Further lines, results first:

IC50 [1, 3]	IC50 [2, 4]	IC50 [1, 5]	IC50 [2, 6]	Structure (SMILES)
≥ 5000 nM	< 250 nM	–	–	Cc1cc([C@@H](C)Nc2ccc(Cl)nc2C(=O)NS(C)(=O)=O)c2nc(N3Cc4nn(-c5ccccc5C)c(N)c4C3)n(C)c(=O)c2c1 [Compound 350, (R)-3-((1-(2-(3-amino-2-(o-tolyl)-2,6-dihydropyrrolo[3,4-c]pyrazol-5(4H)-yl)-3,6-dimethyl-4-oxo-3,4-dihydroquinazolin-8-yl)ethyl)amino)-6-chloro-N-(methylsulfonyl) picolinamide]
1000 to 5000 nM	< 250 nM	–	–	Cc1cc([C@@H](C)Nc2ccc(Cl)nc2C(=O)NS(C)(=O)=O)c2nc(N3Cc4cn(-c5ccc(C#N)cn5)nc4C3)n(C)c(=O)c2c1 [Compound 219, (R)-6-chloro-3-((1-(2-(2-(5-cyanopyridin-2-yl)-2,6-dihydropyrrolo[3,4-c]pyrazol-5(4H)-yl)-3,6-dimethyl-4-oxo-3,4-dihydroquinazolin-8-yl)ethyl)amino)-N-(methylsulfonyl) picolinamide]
1000 to 5000 nM	< 250 nM	–	–	Cc1cc([C@@H](C)Nc2ccc(Cl)nc2C(=O)NS(C)(=O)=O)c2nc(-c3ccc(-c4ccn(C)n4)nc3)n(C)c(=O)c2c1 [Compound 243, (R)-6-chloro-3-((1-(3,6-dimethyl-2-(6-(1-methyl-1H-pyrazol-3-yl)pyridin-3-yl)-4-oxo-3,4-dihydroquinazolin-8-yl)ethyl)amino)-N-(methylsulfonyl) picolinamide]
–	–	≥ 5000 nM	250 to 500 nM	Cc1cc([C@@H](C)Nc2ccc(Cl)nc2C(=O)NS(C)(=O)=O)c2nc(N3C[C@@H]4[C@H](C3)[C@H]4n3cc(F)c(C)n3)n(C)c(=O)c2c1 [Compound 543, 6-chloro-3-(((R)-1-(2-((1R,5S,6S)-6-(4-fluoro-3-methyl-1H-pyrazol-1-yl)-3-azabicyclo[3.1.0]hexan-3-yl)-3,6-dimethyl-4-oxo-3,4-dihydroquinazolin-8-yl)ethyl)amino)-N-(methylsulfonyl) picolinamide]
–	–	≥ 5000 nM	250 to 500 nM	Cc1cc([C@@H](C)Nc2ccc(Cl)nc2C(=O)NS(C)(=O)=O)c2nc(N3CCC(c4cccc5c4cnn5C)CC3)n(C)c(=O)c2c1 [Compound 678, (R)-6-chloro-3-((1-(3,6-dimethyl-2-(4-(1-methyl-1H-indazol-4-yl)piperidin-1-yl)-4-oxo-3,4-dihydroquinazolin-8-yl)ethyl)amino)-N-(methylsulfonyl) picolinamide]
1000 to 5000 nM	< 250 nM	–	–	Cc1cc([C@@H](C)Nc2ccc(Cl)nc2C(=O)NS(C)(=O)=O)c2nc(N3CCC(c4cccnc4C)CC3)n(C)c(=O)c2c1 [Compound 437, (R)-6-chloro-3-((1-(3,6-dimethyl-2-(4-(2-methylpyridin-3-yl)piperidin-1-yl)-4-oxo-3,4-dihydroquinazolin-8-yl)ethyl)amino)-N-(methylsulfonyl) picolinamide]
